# Residues, ends and D or L forms follow the SMILES beside them.
row,Compound,melting point [°C]
1,CC(=O)Nc1c(OC(C)=O)cc2c(c1[N+](=O)[O-])CCC2,168 to 170
2,CC(C)(C)OC(=O)NC(Cc1ccccc1)C(O)CNCC(O)C(Cc1ccc(OCC(=O)N2CCOCC2)cc1)NC(=O)OC(C)(C)C (configuration not stated),118 to 120
3,C=CCc1cc(C=O)ccc1O,66
4,CCOC(=O)C(=O)Nc1c([N+](=O)[O-])cc(S(=O)(=O)NC(=O)C(=O)OCC)c2c1CCCC2,140 to 142
5,Cc1sc(-c2ccccc2)nc1COc1ccc(COc2ccccc2CC(=O)O)cc1,122 to 123
6,NS(=O)(=O)c1cccc(-c2cn(-c3cc(C(F)(F)F)cc(-c4ccc(C(F)(F)F)cc4)n3)cn2)c1,> 266
7,CC(NC(=O)C(N)Cc1ccccc1)C(=O)NCC(=O)NC(Cc1ccccc1)C(=O)NCC(=O)NC(CCCNC(=N)N)C(=O)O (configuration not stated) (H-FAGFGR-OH; configuration not given here),154 to 156
8,CC(C)(C)OC(=O)C1CCC(c2ccco2)N1C(=O)OC(C)(C)C (mixture of isomers),70
9,CC12CCC3c4ccc(C(=O)O)cc4CCC3C1CCC2C(=O)c1ccc2c(c1)OCO2 (configuration not stated),235 to 237
10,CC(C)(CC(=O)O)C(=O)C(=O)O,134 to 135
11,COc1ccc(C(=O)Nc2c(Cl)cc(C(=O)O)cc2Cl)c2cc(C(C)C)oc12,279
12,Cc1cc2c(cc1C(=O)CO)C(C)(C)CC(C)C2(C)C (configuration not stated),81 to 82
13,C#Cc1cn(C2CC(OC(C)=O)C(COC(C)=O)O2)c(=O)[nH]c1=O (configuration not stated),152 to 154
14,N#CCCNC(=O)c1cccc(-c2cccc(Oc3ccc4c(c3)CCC4)n2)c1,122 to 123
15,CCOC(=O)C(C(=O)OCC)c1ccc(Br)cc1[N+](=O)[O-],54 to 55
16,CC(C)(NC(=O)CCNC(=O)c1ccccc1)c1ccccc1,147 to 148
17,Cc1cc2c(c3c1NC(=O)C(C)(C)C3)OC(C)(CN=[N+]=[N-])C2 (configuration not stated),169 to 170
18,O=C1OC(=O)c2cc(Oc3ccc(-c4ccccc4)cc3)ccc21,199
19,CC(C)c1cccc(C(C)C)c1NC(=O)CCCCCSc1nc2cnccc2[nH]1,96 to 98
20,N#Cc1cc(C(=O)O)n(/C=C/c2ccccc2)c1,166 to 168
21,CCCCc1oc2ccccc2c1C(=O)c1ccc2c(Br)c(OC(Cc3ccccc3)C(=O)O)ccc2c1 (configuration not stated),165 to 167

row,Compound,melting point [°C]
1,COC(=O)CC(Nc1ccccc1)c1ccccc1 (configuration not stated),110
2,CCOCC1COc2cc3c(O)c(C(=O)OCC)cnc3cc2O1 (configuration not stated),266 to 268
3,O=C1Nc2ccc(Br)cc2C(c2ccccc2)=NC1OC(=O)C(F)(F)F (configuration not stated),181 to 183
4,CCCCOc1ncc(C(C)=O)cc1-c1nn2c(CC)nc(CCC)c2c(=O)[nH]1,155 to 156
5,CC(=O)OCC1COc2c(C(=O)O)cc(Cl)c(Cl)c2O1 (configuration not stated),144 to 145
6,CCCCNc1c(C(=O)OCC)c(C)nc2sc(C)nc12,53 to 54
7,CC(C)(C)OC(=O)n1ccc2c([N+](=O)[O-])c(NC(=O)COCc3ccccc3)ccc21,145 to 146
8,Nc1nnc(C(F)(F)C(Cl)Cl)s1,181 to 182
9,CCCCCCCCCCCCCC(=O)Nc1ccc(Cl)c(NC(=CC(=O)OCC)NNc2c(Cl)cc(Cl)cc2Cl)c1,91 to 93
10,CN(Cc1ccc(C2=NCCN2C(=O)OC(C)(C)C)cc1)C(=O)/C=C/CNCS(=O)(=O)c1ccc([N+](=O)[O-])cc1[N+](=O)[O-],78
11,CS(=O)(=O)c1cc2c(c(C=O)c1O)CCC2,152 to 153
12,Cc1cc(N(C)CC(=O)N2CCN(Cc3ccccc3)CC2)ccc1Oc1ccc(NC(=O)c2ccc(C(F)(F)F)cc2)cn1,112 to 113
13,NC(=O)NC(=S)Nc1ccccc1,176 to 180
14,CCCOCCN(C)c1ccc(-c2ccc3c(c2)C=C(C(=O)Nc2ccc(CN(C)C4CCOCC4)cc2)CCS3(=O)=O)cc1,193 to 194
15,CCCCCc1cc2cc(O)ccc2c(Oc2ccc(/C=C/C(=O)O)cc2)c1-c1ccccc1,110 to 113
16,CSc1cc(-c2nc3ccccc3[nH]2)no1,179 to 181
17,Fc1ccc(Cn2c(NC3CCN(CCc4ccccn4)CC3)nc3cncnc32)cc1,172
18,O=S(=O)(c1ccc(Nc2nccc(Nc3ccc(F)cc3)n2)cc1)N(CCNCC(F)(F)F)C1CCN(Cc2ccccc2)CC1,137 to 138
19,CCc1nn2ccccc2c1N(CCCF)C(C)=O,76.6 to 79.6
20,NS(=O)(=O)c1cc2cc(C(=O)NCC(O)CO)sc2s1 (configuration not stated),117 to 118
21,CCOC(=S)SCc1cc(OC)nc(N)n1,91 to 93

# Results, then the compound that gave them:
row,melting point [°C],Compound
1,142 to 143,"CCC1(CC(=O)O)OCC(Cc2ccccc2)c2c1[nH]c1ccccc21 (single isomer, unassigned; (-))"
2,161 to 163,COc1ccc(C2Nc3cc(OC)c(OC)cc3C(C)=[N+]2[O-])cc1 (configuration not stated)
3,187 to 188,C=CCN(C(=O)c1cnc(N2CC(C)(C)NC2=O)nc1N)c1cccc(C(F)(F)F)c1
4,115 to 116,O=C(O)C(O)N1C(=O)CCN1c1cccc(F)c1 (configuration not stated)
5,107 to 108,CCC(CC)c1ccc(CN2CCCC2)c2nc(Oc3c(C)cc(Cl)cc3Cl)n(C)c12
6,125 to 126,COc1ccc(NC(C)=O)c(Sc2ccc([N+](=O)[O-])cc2[N+](=O)[O-])c1
7,99 to 100,CCOC(C#N)NC(=O)c1ccc(COC)cc1 (configuration not stated)
8,> 300,Nc1ccc2[nH]c(C(=O)N3CC(CCl)c4c3cc(N)c3ccccc43)cc2c1 (configuration not stated)
9,38.5 to 40.5,CC(C)(CO)NC(=O)c1ccccc1-c1ccccc1
10,110 to 112,O=C(CC1CCN(Cc2ccccc2)CC1)c1ccc(N2CCCC2)cc1
11,243 to 245,O=C1CCC(N2Cc3cc(CNC(=O)Nc4ccccc4)ccc3C2=O)C(=O)N1 (configuration not stated)
12,115 to 116,COc1ccc(C)cc1N1CCN(C(=O)Nc2cc3ccccc3nc2OC)CC1
13,234 to 236,O=S(=O)(Nc1ncnc(Cl)c1-c1ccc(OCc2ccccc2)cc1)c1ccc(Cl)cc1
14,166,O=C1CCCc2c1c1cccc(Cl)c1n2Cc1ccc(F)cc1
15,99 to 101,CC(=Cc1ccc(F)cc1)c1ccc2c(c1)C(C)(C)CCC2(C)C
16,177,COc1c(C)cc2c(c1C)Cc1c-2[nH]c2ccccc12
17,136 to 138,CNC(=O)COc1cc(OC)ccc1O
18,168 to 170,CC1(C)SC2C(NC(=O)Cc3ccccc3)C(=O)N2C1c1nnn[nH]1 (configuration not stated)
19,143 to 144,CCOC(=O)c1cc2c(Cl)cccc2n1CC#N
20,136 to 137,O=C(O)CCc1cnoc1-c1ccc(F)c(Br)c1
21,225 to 226,CN1CCN(C2=Nc3cc(Cl)ccc3Nc3ccsc32)CC1
22,83 to 85,CC(NC(=O)OC(C)(C)C)C(=O)NC1CCN(Cc2ccccc2)C1 (configuration not stated)
23,215 to 218,O=C(Cn1c(-c2ccc(Cl)cc2)nc2cccnc21)N1CCSC1
24,139 to 140,CCNC(=O)c1sc(N2CCN(Cc3ccc(OC(F)(F)F)cc3)C2=O)nc1C
25,162 to 164,COc1ccc2c(c1)c(Cc1nc(-c3cccc([N+](=O)[O-])c3)cs1)c(C)n2C(=O)c1ccc(Cl)cc1
26,202 to 205,CCCCn1c(=O)c(-c2c(Cl)cccc2Cl)cc2cnc(N)nc21
27,193 to 194,CC(O)c1ccnc(C(=O)c2[nH]c3cc(Cl)ccc3c2CC(=O)O)c1 (configuration not stated)
28,134 to 136,CCCCn1c(=O)n(CCCC)c2cc3c(N4CCN(C(=O)Nc5ccc(Oc6ccccc6)cc5)CC4)ncnc3cc21

row,melting point [°C],Compound
1,101 to 103,CN1CC(CCCl)Oc2ccc(Cl)cc2C1=O (configuration not stated)
2,137 to 138,Cc1ccc(CN2CCc3ccc(C(=O)CCC(=O)N4CCC(c5ccc(Cl)cc5)CC4)cc3CC2)cc1
3,165 to 168,CN(C)Nc1c(-c2c(F)cc(F)cc2F)c(Cl)nc2ncnn12
4,184 to 185,NS(=O)(=O)c1ccc(-c2cnn(CC=C(Cl)Cl)c(=O)c2-c2ccc(F)cc2)cc1
5,259 to 261,COC(=O)c1ncc(Nc2cc(C)[nH]n2)nc1Nc1ccc(Cl)cc1
6,250 to 252,N#Cc1ccc(-c2cc(=O)c3cccnc3o2)cc1
7,180 to 184,CCC1c2cccn2-c2ccc(F)cc2N1S(=O)(=O)c1ccc(O)c(Cl)c1 (configuration not stated)
8,115 to 117,CCN(CC)CC1(C(F)(F)F)c2cc(Cl)ccc2Nc2ncccc21 (configuration not stated)
9,150 to 152,CN=C1N(C)C(=O)CN1c1ccc(Cl)cc1
10,125 to 129,CC1=C(c2ccc(O)cc2)C(=O)c2cc(O)ccc21
11,148 to 151,CNC(=O)c1cccc(NC(=O)Cc2ccc([N+](=O)[O-])cc2)c1
12,103 to 104,COc1ccc(OCC(O)CNCCNc2c(C)c(=O)n(C)c(=O)n2C)cc1OC (configuration not stated)
13,205,CC(C)c1noc(-c2ccccc2)c1-c1ccc(S(N)(=O)=O)cc1
14,165,COc1cccc2c(=O)cc(N3CCOCC3)oc12
15,110 to 112,CC(Nc1ccccc1)=C(C#N)C(=O)Nc1ccccc1Cl
16,152,O=C(Nc1cccc(Cl)c1)c1c(C(F)(F)F)nc2c(C(F)(F)F)cccc2c1O
17,250 to 252,C/C(=C\c1ccc(C(=O)O)cc1)c1ccc2c(c1)C(C)(C)C(O)CC2(C)C (configuration not stated)
18,210 to 213,CCCc1ccccc1OCCCOc1ccc2c(=O)cc(C(N)=O)oc2c1
19,119 to 120,Nc1ccc(N2CCN(c3ccccn3)CC2)cc1
20,227 to 230,CCCCCCN(C)c1ccc(C=C2SC(=S)N(CC(=O)NS(C)(=O)=O)C2=O)cc1
21,80 to 82,OCc1ccc(I)c(Cl)c1
22,81 to 83,CCN(CC)CCNC(=O)c1c(I)ccc2cc3ccccc3nc12
23,195 to 200,O=C1NC(=O)C(c2ccccc2Cl)C1SC1=NCCS1 (configuration not stated)
24,89.5 to 90.5,CCCCCCc1cn(C)cc(-c2cccc(C(F)(F)F)c2)c1=O
25,171 to 175,CCOC(=O)c1cnc(-c2ccccc2[N+](=O)[O-])[nH]c1=O
26,138,CCCC(=O)C1c2cccc(O)c2C(=O)c2c(O)cccc21
27,152 to 153,CC1(C)NC(=O)N(c2ccc(Cl)c(C(F)(F)F)c2)C1=O

# Source: a melting point compilation (Tetko et al.; mined from patent text by program, amines drawn as free bases though some values may be those of a salt)
